The text below walks through data of US10919885B2, “Compounds and uses thereof” (Yumanity Therapeutics, Inc., priority 2018, dated 2021).

Broadly, the IC50 is the concentration needed to halve the response being measured. The low end stands for greater potency in that assay, the high end for weaker potency in that assay.

In the assay the target is human SCD1 (Homo sapiens (Human), UniProt O00767). The assay can be described thus: Yeast growth assay, strain expressing human SCD1 as the sole desaturase (reduced growth as surrogate for SCD inhibition). Format: cell-based. As to conditions: yeast with OLE1 deleted expressing human SCD1 from a plasmid; growth read as OD600 after 40 h at 30° C.; top drug concentration 33.3 μM. How it is done: Strains expressing SCD1 or SCD5 as the sole desaturase, the human SCD1 and SCD5 genes were used to evaluate inhibition of SCD1/SCD5 using reduced growth as a surrogate for SCD inhibition. These yeast strains express human SCD1 or SCD5 from a plasmid harbored in a strain in which the yeast OLE1 gene is deleted.
Chain of human SCD1 (O00767 whole entry): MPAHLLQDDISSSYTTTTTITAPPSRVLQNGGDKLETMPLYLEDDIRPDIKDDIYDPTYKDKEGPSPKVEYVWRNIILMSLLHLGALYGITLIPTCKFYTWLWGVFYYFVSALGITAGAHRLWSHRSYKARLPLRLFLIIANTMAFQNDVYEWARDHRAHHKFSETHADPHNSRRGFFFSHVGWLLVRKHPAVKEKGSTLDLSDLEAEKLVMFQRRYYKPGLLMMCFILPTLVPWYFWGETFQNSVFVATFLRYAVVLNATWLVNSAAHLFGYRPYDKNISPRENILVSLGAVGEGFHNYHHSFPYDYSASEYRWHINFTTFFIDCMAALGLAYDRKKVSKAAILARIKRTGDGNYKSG
All compound profiling experiments were performed using the same basic protocol. Yeast were cultured using standard techniques in complete synthetic media lacking uracil and containing yeast nitrogen base supplemented with 2% (w/v) glucose (SD-Ura) Starter cultures were inoculated in 3 mL SD-Ura media containing 0.01% tween and 0.2 mM palmitoleic and oleic acid. Cultures were incubated overnight in a 30° C. shaker incubator (225 rpm). Saturated morning cultures were centrifuged, washed in SD-Ura media lacking TWEEN-20 and fatty acids, and then diluted 1:20 in fresh SD-Ura media also lacking TWEEN-20 and fatty acids.
Compound administration was performed in two separate steps. First, 15 μL of SD-Ura was dispensed into clear 384-well assay plates using a MULTIDROP™ Combi reagent dispenser. […] The cultures described above were centrifuged and washed with media lacking TWEEN-20 or oleic and palmitoleic acids.
After yeast delivery, assay plates were incubated under humidified conditions at 30° C. for 40 h. Yeast growth was monitored by reading the OD600 of each well using a microplate reader (Perkin Elmer EnVision™).
In turn, `O=C(c1cc(-c2ccc3c(c2)OCO3)on1)N1CCCC1C1CC1` (stereo not shown) [Compound 407] returned an IC50 greater than 45 µM.
As to `O=C(c1cc(-c2ccc3c(c2)OCO3)on1)N1C[C@H](F)C[C@H]1c1ccccc1` [Compound 420], the IC50 is greater than 45 µM.
The value for `O=C(c1cc(-c2ccc(Cl)cn2)on1)N1CC(Cc2ccccc2)C1` [Compound 254] was greater than 45 µM.
The result for `O=C(c1cc(-c2ccccc2Cl)on1)N1CCC(c2ccccc2)C1` (stereo not shown) [Compound 333] reads greater than 45 µM.
Compound `Cn1cc(-c2cc(C(=O)N3CCC[C@H]3c3ccccc3)no2)ccc1=O` [Compound 429] returned an IC50 of 36.3 µM.
`O=C(Nc1cnn(Cc2ccccc2)c1)c1cc(-c2cncs2)on1` [Compound 37, N-(1-benzylpyrazol-4-yl)-5-thiazol-5-yl-isoxazole-3-carboxamide] had an IC50 of 0.26 µM.
For the compound `O=C(c1cc(-c2ccc3c(c2)OCO3)on1)N1CC=C(c2cc(F)ccc2Cl)CC1` [Compound 306, [5-(1,3-benzodioxol-5-yl)isoxazol-3-yl]-[4-(2-chloro-5-fluoro-phenyl)-3,6-dihydro-2H-pyridin-1-yl]methanone], the IC50 is 3.27 µM.
Compound `N#Cc1ccccc1-c1cc(C(=O)N2CCC[C@H]2c2ccccc2)no1` [Compound 402] showed an IC50 greater than 45 µM.
The compound `COc1ccc(C2CCCN2C(=O)c2cc(-c3ccc4c(c3)OCO4)on2)cc1` (stereo not shown) [Compound 356] showed an IC50 greater than 45 µM.
For the compound `CO[C@@H]1CCN(c2cc(C(=O)Nc3cnn(Cc4ccccc4)c3)no2)C1` [Compound 188, (R)—N-(1-benzyl-1H-pyrazol-4-yl)-5-(3-methoxypyrrolidin-1-yl)isoxazole-3-carboxamide], the IC50 was determined as 0.074 µM.
`C[C@H]1CCCN1C(=O)c1cc(-c2ccc3c(c2)OCO3)on1` [Compound 369] returned an IC50 greater than 45 µM.
The compound `O=C(c1cc(-c2ccc3c(c2)OCO3)on1)N1CCCC1c1ncco1` (stereo not shown) [Compound 423] returned an IC50 greater than 45 µM.
The value for `CC(C)(C)OC(=O)N1CCN(c2cc(C(=O)Nc3cnn(Cc4ccccc4)c3)no2)CC1` [Compound 185, tert-butyl 4-(3-(1-benzyl-1H-pyrazol-4-ylcarbamoyl)isoxazol-5-yl)piperazine-1-carboxylate] was 0.012 µM.
The value for `COc1ccc(C2CCCN2C(=O)c2cc(-c3ccc4c(c3)OC(F)(F)O4)on2)cc1` (stereo not shown) [Compound 393] was greater than 45 µM; that for `O=C(Nc1cnn(CC2CCCCC2)c1)c1cc(-c2ccco2)on1` [Compound 26, N-[1-(cyclohexylmethyl)pyrazol-4-yl]-5-(2-furyl)isoxazole-3-carboxamide] was greater than 45 µM; that for `O=C(c1cc(-c2ccc3c(c2)OCO3)on1)N1CCN(c2ccccc2F)CC1` [Compound 277] was greater than 45 µM.
The value for `O=C(c1cc(-c2ccco2)on1)N1CC2(CCC2)C1` [Compound 246] was greater than 45 µM; that for `CC(C)(C)OC(=O)N1CCN(C(=O)c2cc(-c3ccc4c(c3)OCO4)on2)CC1` [Compound 267] was greater than 45 µM; that for `O=C(Nc1cnn(Cc2cnccc2C(F)(F)F)c1)c1cc(-c2ccccn2)on1` [Compound 197, 5-(pyridin-2-yl)-N-(1-{[4-(trifluoromethyl)pyridin-3-yl]methyl}-1H-pyrazol-4-yl)-1,2-oxazole-3-carboxamide] was greater than 45 µM.
In the case of `COc1ccc(C2CCCN2C(=O)c2cc(-c3ccc(F)c(OC)c3)on2)cc1` (stereo not shown) [Compound 383], the IC50 stood at 36.6 µM.
The result for `O=C(c1cc(-c2ccc3c(c2)OCO3)on1)N1CCC(O)(c2ccccc2)CC1` [Compound 300] reads greater than 45 µM; that for `O=C(Nc1cnn(Cc2cccc(F)c2)c1)c1cc(C2=CCCCC2)on1` [Compound 85, 5-cyclohexenyl-N-(1-(3-fluorobenzyl)-1H-pyrazol-4-yl)isoxazole-3-carboxamide], 0.011 µM; that for `COc1ccc(C2CCCN2C(=O)c2cc(-c3ccc(OC(F)(F)F)cc3)on2)cc1` (stereo not shown) [Compound 380], greater than 45 µM.
The result for `O=C(Nc1cnn(Cc2ccccc2Cl)c1)c1cc(-c2ccco2)on1` [Compound 23, N-[1-[(2-chlorophenyl)methyl]pyrazol-4-yl]-5-(2-furyl)isoxazole-3-carboxamide] reads greater than 45 µM; that for `CNC(=O)c1ccc(-c2cc(C(=O)N3CC(c4ccccc4)C3)no2)cc1` [Compound 231, N-methyl-4-(3-(3-phenylazetidine-1-carbonyl)isoxazol-5-yl)benzamide], greater than 45 µM; that for `O=C(c1cc(-c2ccccc2)on1)N1CC(Cc2ccccc2)C1` [Compound 211, (3-benzylazetidin-1-yl)-(5-phenylisoxazol-3-yl)methanone], 0.12 µM.
The value for `O=C(c1cc(N2CCOCC2)on1)N1CC(c2ccccc2)C1` [Compound 248] was 33 µM; that for `O=C(Nc1cnn(Cc2ccccc2F)c1)c1cc(-c2ccccc2)on1` [Compound 111] was 9.4 µM.
For `O=C(c1cc(-c2ccc3c(c2)OCO3)on1)N1C[C@@H](F)C[C@H]1c1ccccc1` [Compound 427], half-maximal inhibition (IC50) required 30 µM.
Regarding `CC(C)c1cc(C(=O)Nc2cnn(Cc3cccc(F)c3)c2)no1` [Compound 60, N-(1-(3-fluorobenzyl)-1H-pyrazol-4-yl)-5-isopropylisoxazole-3-carboxamide], the IC50 was 0.03 µM.
Turning to `O=C(Nc1cnn(Cc2cccc(F)c2)c1)c1cc(N2CCCCC2)on1` [Compound 102, N-(1-(3-fluorobenzyl)-1H-pyrazol-4-yl)-5-(piperidin-1-yl)isoxazole-3-carboxamide], half-maximal inhibition (IC50) was put at 0.036 µM.
Turning to `CC1(c2cc(C(=O)Nc3cnn(Cc4ccccc4)c3)no2)COC1` [Compound 121], the IC50 stood at 0.21 µM.
The value for `Cc1nn(Cc2ccccc2)c(C)c1NC(=O)c1cc(-c2ccc3c(c2)OCO3)on1` [Compound 5] was greater than 45 µM.
Turning to `O=C(c1cc(-c2ccccc2)on1)N1CCn2ccnc2C1` [Compound 268], it took 36 µM to reach half-maximal inhibition (IC50).
The value for `O=C(c1cc(-c2ccccc2)on1)N1CCC2(CCN(c3ccccc3)C2)C1` (stereo not shown) [Compound 341] was greater than 45 µM; that for `O=C(Nc1cnn(Cc2cccc(F)c2)c1)c1cc(C2CCCCC2)on1` [Compound 83, 5-cyclohexyl-N-(1-(3-fluorobenzyl)-1H-pyrazol-4-yl)isoxazole-3-carboxamide] was 0.066 µM.
The compound `O=C(Nc1cnn(Cc2cnccc2C(F)(F)F)c1)c1cc(-c2ccco2)on1` [Compound 198, 5-(furan-2-yl)-N-(1-{[4-(trifluoromethyl)pyridin-3-yl]methyl}-1H-pyrazol-4-yl)-1,2-oxazole-3-carboxamide] gave an IC50 greater than 45 µM.
On to `O=C(c1cc(-c2ccc3c(c2)OCO3)on1)N1CCCc2cccc(F)c21` [Compound 264], for which the IC50 is greater than 45 µM.
In the case of `O=C(Nc1cc(-c2ccco2)on1)c1cnn(Cc2ccccc2)c1` [Compound 49, 1-benzyl-N-[5-(2-furyl)isoxazol-3-yl]pyrazole-4-carboxamide], the IC50 was greater than 45 µM.
For the compound `C[C@@H]1CCCN1C(=O)c1cc(-c2ccc3c(c2)OCO3)on1` [Compound 370], the IC50 was greater than 45 µM.
Regarding `O=C(c1cc(-c2ccc3c(c2)OCO3)on1)N1CCCC1c1cccc(F)c1` (stereo not shown) [Compound 367], the concentration for half-maximal inhibition (IC50) was greater than 45 µM.
In the case of `COc1ccc(C2CCCN2C(=O)c2cc(-c3cccc(OC)c3)on2)cc1` (stereo not shown) [Compound 375], the IC50 is greater than 45 µM.
For the compound `O=C(NC1CCN(c2ccccc2)C1)c1cc(-c2ccco2)on1` (stereo not shown) [Compound 343], the IC50 was greater than 45 µM.
